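Interpolation was linear, between the two tested concentrations surrounding the appropriate level; five concentrations were tested over 48 hours in 96-well plates. Abbreviation: GI50, concentration required for 50% inhibition of growth. Definition used: TGI = concentration required for complete inhibition of growth.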
Columns and labels:
Test in all cases: DTP human tumour cell line panel, 48 h
OVCAR-4 ovarian = tested on: OVCAR-4 ovarian
HCT-116 colon = tested on: HCT-116 colon
K-562 leukemia = tested on: K-562 leukemia
SR leukemia = tested on: SR leukemia
SK-OV-3 ovarian = tested on: SK-OV-3 ovarian
COLO 205 colon = tested on: COLO 205 colon
MALME-3M melanoma = tested on: MALME-3M melanoma
NCI/ADR-RES ovarian = tested on: NCI/ADR-RES ovarian
SN12C renal = tested on: SN12C renal
UO-31 renal = tested on: UO-31 renal
SF-295 CNS = tested on: SF-295 CNS
MDA-MB-435 = tested on: MDA-MB-435
LOX IMVI melanoma = tested on: LOX IMVI melanoma
UACC-62 melanoma = tested on: UACC-62 melanoma
SW-620 colon = tested on: SW-620 colon
M14 melanoma = tested on: M14 melanoma
CAKI-1 renal = tested on: CAKI-1 renal
T-47D breast = tested on: T-47D breast
SNB-19 CNS = tested on: SNB-19 CNS
CCRF-CEM leukemia = tested on: CCRF-CEM leukemia
OVCAR-5 ovarian = tested on: OVCAR-5 ovarian
HL-60(TB) leukemia = tested on: HL-60(TB) leukemia
MCF7 breast = tested on: MCF7 breast
RXF 393 renal = tested on: RXF 393 renal
RPMI-8226 leukemia = tested on: RPMI-8226 leukemia
SK-MEL-2 melanoma = tested on: SK-MEL-2 melanoma
IGROV1 ovarian = tested on: IGROV1 ovarian
A549 NSCLC = tested on: A549 NSCLC
TK-10 renal = tested on: TK-10 renal
HOP-62 NSCLC = tested on: HOP-62 NSCLC
NCI-H23 lung = tested on: NCI-H23 lung
SK-MEL-5 melanoma = tested on: SK-MEL-5 melanoma
HCT-15 colon = tested on: HCT-15 colon
OVCAR-3 ovarian = tested on: OVCAR-3 ovarian
SF-539 CNS = tested on: SF-539 CNS
HS 578T breast = tested on: HS 578T breast
NCI-H226 lung = tested on: NCI-H226 lung
BT-549 breast = tested on: BT-549 breast
HT29 colon = tested on: HT29 colon
NCI-H460 lung = tested on: NCI-H460 lung
NCI-H522 lung = tested on: NCI-H522 lung
SK-MEL-28 melanoma = tested on: SK-MEL-28 melanoma
HOP-92 NSCLC = tested on: HOP-92 NSCLC
KM12 colon = tested on: KM12 colon
MOLT-4 leukemia = tested on: MOLT-4 leukemia
EKVX NSCLC = tested on: EKVX NSCLC
U251 CNS = tested on: U251 CNS
786-0 renal = tested on: 786-0 renal
PC-3 prostate = tested on: PC-3 prostate
SNB-75 CNS = tested on: SNB-75 CNS
DU-145 prostate = tested on: DU-145 prostate
UACC-257 melanoma = tested on: UACC-257 melanoma
ACHN renal = tested on: ACHN renal
HCC-2998 colon = tested on: HCC-2998 colon
A498 renal = tested on: A498 renal
MDA-MB-231 breast = tested on: MDA-MB-231 breast
SF-268 CNS = tested on: SF-268 CNS
OVCAR-8 ovarian = tested on: OVCAR-8 ovarian

SMILES: C#C[C@]1(O)CC[C@H]2[C@@H]3CC=C4c5sc(Nc6ccncc6)nc5CC[C@]4(C)[C@H]3CC[C@@]21C
- GI50 (OVCAR-4 ovarian): 1360 nM
- TGI (OVCAR-4 ovarian): 3190 nM
- GI50 (HCT-116 colon): 309 nM
- TGI (HCT-116 colon): 1200 nM
- GI50 (K-562 leukemia): 247 nM
- TGI (K-562 leukemia): 811 nM
- GI50 (SR leukemia): 47.2 nM
- TGI (SR leukemia): 483 nM
- GI50 (SK-OV-3 ovarian): 268 nM
- TGI (SK-OV-3 ovarian): 780 nM
- GI50 (COLO 205 colon): 227 nM
- TGI (COLO 205 colon): 494 nM
- GI50 (MALME-3M melanoma): 266 nM
- TGI (MALME-3M melanoma): 994 nM
- GI50 (NCI/ADR-RES ovarian): 1260 nM
- TGI (NCI/ADR-RES ovarian): 4480 nM
- GI50 (SN12C renal): 745 nM
- TGI (SN12C renal): 2110 nM
- GI50 (UO-31 renal): 227 nM
- TGI (UO-31 renal): 822 nM
- GI50 (SF-295 CNS): 91.2 nM
- TGI (SF-295 CNS): 311 nM
- GI50 (MDA-MB-435): 293 nM
- TGI (MDA-MB-435): 1050 nM
- GI50 (LOX IMVI melanoma): 200 nM
- TGI (LOX IMVI melanoma): 476 nM
- GI50 (UACC-62 melanoma): 223 nM
- TGI (UACC-62 melanoma): 595 nM
- GI50 (SW-620 colon): 284 nM
- TGI (SW-620 colon): 901 nM
- GI50 (M14 melanoma): 182 nM
- TGI (M14 melanoma): 398 nM
- GI50 (CAKI-1 renal): 345 nM
- TGI (CAKI-1 renal): 1560 nM
- GI50 (T-47D breast): 973 nM
- TGI (T-47D breast): 3990 nM
- GI50 (SNB-19 CNS): 305 nM
- TGI (SNB-19 CNS): 4640 nM
- GI50 (CCRF-CEM leukemia): 257 nM
- TGI (CCRF-CEM leukemia): 3750 nM
- GI50 (OVCAR-5 ovarian): 1060 nM
- TGI (OVCAR-5 ovarian): 3130 nM
- GI50 (HL-60(TB) leukemia): 153 nM
- TGI (HL-60(TB) leukemia): 1390 nM
- GI50 (MCF7 breast): 232 nM
- TGI (MCF7 breast): 1380 nM
- GI50 (RXF 393 renal): 25.1 nM
- TGI (RXF 393 renal): 110 nM
- GI50 (RPMI-8226 leukemia): 42 nM
- TGI (RPMI-8226 leukemia): 250 nM
- GI50 (SK-MEL-2 melanoma): 342 nM
- TGI (SK-MEL-2 melanoma): 1320 nM
- GI50 (IGROV1 ovarian): 531 nM
- TGI (IGROV1 ovarian): 2050 nM
- GI50 (A549 NSCLC): 372 nM
- TGI (A549 NSCLC): 1820 nM
- GI50 (TK-10 renal): 1010 nM
- TGI (TK-10 renal): 2460 nM
- GI50 (HOP-62 NSCLC): 266 nM
- TGI (HOP-62 NSCLC): 1150 nM
- GI50 (NCI-H23 lung): 657 nM
- TGI (NCI-H23 lung): 2520 nM
- GI50 (SK-MEL-5 melanoma): 467 nM
- TGI (SK-MEL-5 melanoma): 1570 nM
- GI50 (HCT-15 colon): 261 nM
- TGI (HCT-15 colon): 1190 nM
- GI50 (OVCAR-3 ovarian): 1480 nM
- TGI (OVCAR-3 ovarian): 3660 nM
- GI50 (SF-539 CNS): 108 nM
- TGI (SF-539 CNS): 318 nM
- GI50 (HS 578T breast): 64.5 nM
- TGI (HS 578T breast): 580 nM
- GI50 (NCI-H226 lung): 1620 nM
- TGI (NCI-H226 lung): 22500 nM
- GI50 (BT-549 breast): 330 nM
- TGI (BT-549 breast): 1620 nM
- GI50 (HT29 colon): 308 nM
- TGI (HT29 colon): 1290 nM
- GI50 (NCI-H460 lung): 372 nM
- TGI (NCI-H460 lung): 1400 nM
- GI50 (NCI-H522 lung): 740 nM
- TGI (NCI-H522 lung): 2220 nM
- GI50 (SK-MEL-28 melanoma): 148 nM
- TGI (SK-MEL-28 melanoma): 394 nM
- GI50 (HOP-92 NSCLC): 312 nM
- TGI (HOP-92 NSCLC): 1330 nM
- GI50 (KM12 colon): 387 nM
- TGI (KM12 colon): 1780 nM
- GI50 (MOLT-4 leukemia): 216 nM
- TGI (MOLT-4 leukemia): 997 nM
- GI50 (EKVX NSCLC): 552 nM
- TGI (EKVX NSCLC): 3160 nM
- GI50 (U251 CNS): 103 nM
- TGI (U251 CNS): 1160 nM
- GI50 (786-0 renal): 120 nM
- TGI (786-0 renal): 648 nM
- GI50 (PC-3 prostate): 243 nM
- TGI (PC-3 prostate): 1350 nM
- GI50 (SNB-75 CNS): 191 nM
- TGI (SNB-75 CNS): 1930 nM
- GI50 (DU-145 prostate): 1050 nM
- TGI (DU-145 prostate): 3620 nM
- GI50 (UACC-257 melanoma): 193 nM
- TGI (UACC-257 melanoma): 416 nM
- GI50 (ACHN renal): 484 nM
- TGI (ACHN renal): 1940 nM
- GI50 (HCC-2998 colon): 1480 nM
- TGI (HCC-2998 colon): 2930 nM
- GI50 (A498 renal): 204 nM
- TGI (A498 renal): 517 nM
- GI50 (MDA-MB-231 breast): 942 nM
- TGI (MDA-MB-231 breast): 3280 nM
- GI50 (SF-268 CNS): 445 nM
- TGI (SF-268 CNS): 2850 nM
- GI50 (OVCAR-8 ovarian): 987 nM
- TGI (OVCAR-8 ovarian): 2780 nM

Source: PubChem BioAssay (NCI)
